Assay results from ChEMBL document CHEMBL1147537, “N-Benzoyl amino acids as ICAM/LFA-1 inhibitors. Part 2: structure-activity relationship of the benzoyl moiety” (Bioorg Med Chem Lett, 2004).
Non-standard residues stand in square brackets, D forms with d. Residues, ends and D or L forms follow the SMILES beside them. ξ: configuration not given here. ξPip = O=C(O)C1CCCCN1

Molecular target: Intercellular adhesion molecule (ICAM-1), Integrin alpha-L/beta-2 (Homo sapiens, UniProt P05107+P05362+P20701)
Sequence (P20701 whole entry): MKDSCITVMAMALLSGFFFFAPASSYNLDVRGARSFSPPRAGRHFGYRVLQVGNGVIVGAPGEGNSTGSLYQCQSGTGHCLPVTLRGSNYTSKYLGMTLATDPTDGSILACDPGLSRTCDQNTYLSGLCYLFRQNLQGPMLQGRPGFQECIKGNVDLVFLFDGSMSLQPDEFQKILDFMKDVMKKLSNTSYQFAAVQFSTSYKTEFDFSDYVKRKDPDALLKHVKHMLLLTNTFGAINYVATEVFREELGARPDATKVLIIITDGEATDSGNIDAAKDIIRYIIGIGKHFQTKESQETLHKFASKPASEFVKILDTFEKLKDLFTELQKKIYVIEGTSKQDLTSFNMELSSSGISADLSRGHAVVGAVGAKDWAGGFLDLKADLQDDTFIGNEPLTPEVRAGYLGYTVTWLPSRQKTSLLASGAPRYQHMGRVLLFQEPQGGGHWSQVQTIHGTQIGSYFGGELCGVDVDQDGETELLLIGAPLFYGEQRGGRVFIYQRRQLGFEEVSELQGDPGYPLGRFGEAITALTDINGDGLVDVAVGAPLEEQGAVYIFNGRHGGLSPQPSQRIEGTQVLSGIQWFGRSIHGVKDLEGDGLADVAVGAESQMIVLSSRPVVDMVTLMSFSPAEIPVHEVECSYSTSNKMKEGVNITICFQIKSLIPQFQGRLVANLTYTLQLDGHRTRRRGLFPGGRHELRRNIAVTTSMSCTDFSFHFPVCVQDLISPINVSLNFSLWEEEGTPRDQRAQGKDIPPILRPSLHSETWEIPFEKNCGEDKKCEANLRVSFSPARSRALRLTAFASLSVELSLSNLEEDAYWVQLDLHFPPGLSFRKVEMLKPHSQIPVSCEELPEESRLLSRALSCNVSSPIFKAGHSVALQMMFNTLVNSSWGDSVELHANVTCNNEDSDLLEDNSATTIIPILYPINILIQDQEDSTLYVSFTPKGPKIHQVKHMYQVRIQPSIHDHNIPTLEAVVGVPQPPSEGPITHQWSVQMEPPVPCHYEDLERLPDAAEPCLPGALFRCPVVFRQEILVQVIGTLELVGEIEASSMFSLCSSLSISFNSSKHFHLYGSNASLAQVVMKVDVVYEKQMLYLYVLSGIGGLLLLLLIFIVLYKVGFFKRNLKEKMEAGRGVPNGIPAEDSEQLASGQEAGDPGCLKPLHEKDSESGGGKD
Sequence (P05362 whole entry): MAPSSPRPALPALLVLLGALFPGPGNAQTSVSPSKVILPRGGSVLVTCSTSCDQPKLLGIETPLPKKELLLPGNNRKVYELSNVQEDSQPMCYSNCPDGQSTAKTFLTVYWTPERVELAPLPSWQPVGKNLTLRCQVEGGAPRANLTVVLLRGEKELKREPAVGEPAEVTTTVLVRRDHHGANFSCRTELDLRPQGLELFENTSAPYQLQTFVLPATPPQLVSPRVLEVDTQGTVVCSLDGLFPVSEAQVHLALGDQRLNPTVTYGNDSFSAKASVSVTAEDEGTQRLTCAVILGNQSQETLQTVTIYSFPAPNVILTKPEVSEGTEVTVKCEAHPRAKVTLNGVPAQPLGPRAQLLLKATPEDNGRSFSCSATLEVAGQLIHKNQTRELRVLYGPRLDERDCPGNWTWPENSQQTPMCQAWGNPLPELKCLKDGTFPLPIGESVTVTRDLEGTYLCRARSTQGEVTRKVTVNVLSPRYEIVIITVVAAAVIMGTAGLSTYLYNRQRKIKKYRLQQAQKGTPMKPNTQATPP
Sequence (P05107 whole entry): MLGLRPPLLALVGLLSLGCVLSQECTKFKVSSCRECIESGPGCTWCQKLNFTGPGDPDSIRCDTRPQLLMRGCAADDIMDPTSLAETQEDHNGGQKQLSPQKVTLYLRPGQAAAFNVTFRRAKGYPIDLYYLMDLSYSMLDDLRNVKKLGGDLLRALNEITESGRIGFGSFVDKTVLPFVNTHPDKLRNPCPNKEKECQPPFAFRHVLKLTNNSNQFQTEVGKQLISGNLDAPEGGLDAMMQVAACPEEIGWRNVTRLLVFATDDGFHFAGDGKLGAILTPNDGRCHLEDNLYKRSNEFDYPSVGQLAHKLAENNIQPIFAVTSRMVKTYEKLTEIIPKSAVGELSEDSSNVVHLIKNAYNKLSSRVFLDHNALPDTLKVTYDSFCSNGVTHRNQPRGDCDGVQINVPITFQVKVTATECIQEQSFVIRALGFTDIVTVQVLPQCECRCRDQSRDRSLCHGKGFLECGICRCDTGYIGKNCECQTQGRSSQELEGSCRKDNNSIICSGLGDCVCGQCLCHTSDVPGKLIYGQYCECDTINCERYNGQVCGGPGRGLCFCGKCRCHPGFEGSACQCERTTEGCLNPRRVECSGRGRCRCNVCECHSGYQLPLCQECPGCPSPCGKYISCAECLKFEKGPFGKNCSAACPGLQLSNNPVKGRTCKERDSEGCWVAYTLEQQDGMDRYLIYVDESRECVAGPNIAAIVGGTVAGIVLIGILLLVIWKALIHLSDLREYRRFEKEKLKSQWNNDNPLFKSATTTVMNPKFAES
Assay: Inhibitory activity against association of LFA-1 with intercellular adhesion molecule 1
Assay type: protein-complex assay

| SMILES | IC50 |
| --- | --- |
| O=C(N[C@@H](Cc1c[nH]c2ccccc12)C(=O)O)c1ccccc1-c1ccccc1 | > 100 µM |
| COc1ccc(C(=O)N[C@@H](Cc2c[nH]c3ccccc23)C(=O)O)cc1 | 178 µM |
| O=C(N[C@@H](Cc1c[nH]c2ccccc12)C(=O)O)c1ccccc1O | > 500 µM |
| O=C(N[C@@H](Cc1c[nH]c2ccccc12)C(=O)O)c1cccc(O)c1 | > 100 µM |
| O=C(N[C@@H](Cc1c[nH]c2ccccc12)C(=O)O)c1ccc(O)cc1 | > 100 µM |
| O=C(N[C@@H](Cc1c[nH]c2ccccc12)C(=O)O)C1CCNCC1 | > 1000 µM |
| O=C(O)[C@H](Cc1c[nH]c2ccccc12)NC(=O)N1CCCCC1 | 380 µM |
| O=C(N[C@@H](Cc1c[nH]c2ccccc12)C(=O)O)c1cc(Cl)cc(Cl)c1 | 200 µM |
| O=C(N[C@@H](Cc1c[nH]cn1)C(=O)O)c1c(F)cccc1Cl | 0.13 µM |
| O=C(N[C@@H](Cc1c[nH]c2ccccc12)C(=O)O)c1cccc(Br)c1 | > 100 µM |
| O=C(N[C@@H](Cc1c[nH]c2ccccc12)C(=O)O)c1ccc(Cl)c(Cl)c1 | 170 µM |
| Cc1cccc(C)c1C(=O)N[C@@H](Cc1cnc[nH]1)C(=O)O | 1.77 µM |
| O=C(N[C@@H](Cc1c[nH]c2ccccc12)C(=O)O)c1c(F)cccc1Cl | 0.25 µM |
| Cc1cccc(C(=O)N[C@@H](Cc2c[nH]c3ccccc23)C(=O)O)c1 | 295 µM |
| O=C(N[C@@H](Cc1cnc[nH]1)C(=O)O)c1c(Cl)cccc1Cl | 0.16 µM |
| O=C(N[C@@H](Cc1c[nH]c2ccccc12)C(=O)O)C1CCCCN1 (stereo partly drawn) (H-[ξPip]-Trp-OH) | > 1000 µM |

| SMILES | IC50 |
| --- | --- |
| O=C(N[C@@H](Cc1c[nH]c2ccccc12)C(=O)O)c1cccc(F)c1 | 148 µM |
| O=C(N[C@@H](Cc1c[nH]cn1)C(=O)O)c1c(F)cccc1F | 0.2 µM |
| O=C(N[C@@H](Cc1c[nH]c2ccccc12)C(=O)O)c1ccc(F)cc1 | 136 µM |
| COc1ccccc1C(=O)N[C@@H](Cc1c[nH]c2ccccc12)C(=O)O | 225 µM |
| O=C(N[C@@H](Cc1c[nH]c2ccccc12)C(=O)O)c1ccccn1 | > 100 µM |
| O=C(N[C@@H](Cc1c[nH]c2ccccc12)C(=O)O)c1cccc(Cl)c1 | 295 µM |
| O=C(N[C@@H](Cc1c[nH]c2ccccc12)C(=O)O)c1cccc(I)c1 | > 100 µM |
| NC(=O)C[C@H](NC(=O)c1c(F)cccc1Cl)C(=O)O | 0.11 µM |
| O=C(N[C@@H](Cc1c[nH]c2ccccc12)C(=O)O)c1ccc(-c2ccccc2)cc1 | > 100 µM |
| O=C(N[C@@H](Cc1c[nH]c2ccccc12)C(=O)O)c1cncc(Br)c1 | > 200 µM |
| O=C(N[C@@H](Cc1c[nH]c2ccccc12)C(=O)O)C1CCCNC1 (stereo partly drawn) | > 1000 µM |
| O=C(N[C@@H](Cc1c[nH]c2ccccc12)C(=O)O)c1cc(Br)ccc1O | > 500 µM |
| O=C(N[C@@H](Cc1c[nH]c2ccccc12)C(=O)O)c1ccc[n+]([O-])c1 | > 1000 µM |
| O=C(N[C@@H](Cc1c[nH]c2ccccc12)C(=O)O)c1ccc(Cl)cc1 [BENZOTRIPT] | 169 µM |
| COc1cccc(C(=O)N[C@@H](Cc2c[nH]c3ccccc23)C(=O)O)c1 | 438 µM |

Results, then the compound that gave them:

| IC50 | SMILES |
| --- | --- |
| 32.6 µM | O=C(N[C@@H](Cc1c[nH]c2ccccc12)C(=O)O)c1cnccc1Cl |
| 0.43 µM | O=C(N[C@@H](Cc1c[nH]c2ccccc12)C(=O)O)c1c(F)cccc1Br |
| 0.23 µM | NC(=O)C[C@H](NC(=O)c1c(F)cccc1F)C(=O)O |
| 28 µM | CC1CCCCC1C(=O)N[C@@H](Cc1c[nH]c2ccccc12)C(=O)O (stereo partly drawn) |
| 5.2 µM | O=C(N[C@@H](Cc1c[nH]c2ccccc12)C(=O)O)c1ccc([N+](=O)[O-])cc1Cl |
| 1.1 µM | Cc1cccc(C)c1C(=O)N[C@@H](Cc1c[nH]c2ccccc12)C(=O)O |
| 8.9 µM | O=C(N[C@@H](Cc1c[nH]c2ccccc12)C(=O)O)c1ccccc1I |
| 61 µM | O=C(N[C@@H](Cc1c[nH]c2ccccc12)C(=O)O)c1ccc(Br)cc1 |
| 24.3 µM | O=C(N[C@@H](Cc1c[nH]c2ccccc12)C(=O)O)c1cc(Br)ccc1Br |
| 127 µM | O=C(N[C@@H](Cc1c[nH]c2ccccc12)C(=O)O)c1ccccc1 |
| 8.4 µM | O=C(N[C@@H](Cc1c[nH]c2ccccc12)C(=O)O)c1ccc(Cl)cc1Cl |
| 0.46 µM | O=C(N[C@@H](Cc1c[nH]c2ccccc12)C(=O)O)c1c(F)cccc1F |
| 1.5 µM | O=C(N[C@@H](Cc1c[nH]c2ccccc12)C(=O)O)c1ccccc1Cl |
| 0.64 µM | Cc1cccc(Cl)c1C(=O)N[C@@H](Cc1c[nH]c2ccccc12)C(=O)O |
| 0.17 µM | NC(=O)C[C@H](NC(=O)c1c(Cl)cccc1Cl)C(=O)O |
| 17.9 µM | O=C(N[C@@H](Cc1c[nH]c2ccccc12)C(=O)O)c1cc(Br)ccc1Cl |

| IC50 | SMILES |
| --- | --- |
| 112 µM | O=C(N[C@@H](Cc1c[nH]c2ccccc12)C(=O)O)c1cccnc1 |
| 92 µM | O=C(N[C@@H](Cc1c[nH]c2ccccc12)C(=O)O)c1ccncc1 |
| 4 µM | Cc1ccccc1C(=O)N[C@@H](Cc1c[nH]c2ccccc12)C(=O)O |
| 2 µM | Nc1ccc(C(=O)N[C@@H](Cc2c[nH]c3ccccc23)C(=O)O)c(Cl)c1 |
| 61 µM | O=C(N[C@@H](Cc1c[nH]c2ccccc12)C(=O)O)C1CCCCC1 |
| 9 µM | COc1ccc(Br)c(C(=O)N[C@@H](Cc2c[nH]c3ccccc23)C(=O)O)c1 |
| 0.6 µM | O=C(N[C@@H](Cc1c[nH]c2ccccc12)C(=O)O)c1c(Cl)cccc1Cl |
| 21.6 µM | O=C(N[C@@H](Cc1c[nH]c2ccccc12)C(=O)O)c1cccc(F)c1F |
| 1.2 µM | O=C(N[C@@H](Cc1c[nH]c2ccccc12)C(=O)O)c1cccnc1Cl |
| 6.6 µM | O=C(N[C@@H](Cc1c[nH]c2ccccc12)C(=O)O)c1cc(Cl)ccc1Cl |
| 6.3 µM | O=C(N[C@@H](Cc1c[nH]c2ccccc12)C(=O)O)c1cccc(Cl)c1Cl |
| 92 µM | O=C(N[C@@H](Cc1c[nH]c2ccccc12)C(=O)O)c1ccc(I)cc1 |
| 11.5 µM | O=C(N[C@@H](Cc1c[nH]c2ccccc12)C(=O)O)c1cc(F)ccc1F |
| 89.7 µM | O=C(N[C@@H](Cc1c[nH]c2ccccc12)C(=O)O)c1cc(F)cc(F)c1 |
| 7.4 µM | O=C(N[C@@H](Cc1c[nH]c2ccccc12)C(=O)O)c1ccccc1F |
| 129 µM | Cc1ccc(C(=O)N[C@@H](Cc2c[nH]c3ccccc23)C(=O)O)cc1 |
